This assay deals with T1, recombinant human serotonin receptor 5-HT2A (Homo sapiens, UniProt P28223).
T1 construct: expressed in transfected cells; method B: loaded with Ca2+ dye
Kind of assay: 5-HT2A antagonist Ca2+ assay in CHO-K1 cells (method A aequorin luminescence / method B FLIPR fluorescence). The assay is classed as cell-based. As to conditions: antagonist mode vs EC80 of reference agonist, method A or B, read-out: 5HT2A IC50. An excerpt:
The methods utilized to assess the inhibitory activity of compounds on recombinant human serotonin receptor 5-HT2A was based upon previously published approaches [Jerman J C, Brough S J, Gager T, Wood M, Coldwell M C, Smart D, Middlemiss D N. Pharmacological characterisation of human 5-HT2 receptor subtypes. European Journal of Pharmacology 2001 Feb. 23; 414(1):23-30; Le Poul E, Hisada S, Mizuguchi Y, Dupriez V J, Burgeon E, Detheux M. Adaptation of aequorin functional assay to high throughput screening. J Biomolecular Screening 2002 February; 7(1):57-65.] The 5-HT2A receptor signals through Gq-phospholipase signaling cascade, which leads to a transient increase in free intracellular […] concentration. Both 5-HT2A assay methods rely upon monitoring these changes in Ca^2+ concentration.
In method A [Le Poul E, Hisada S, Mizuguchi Y, Dupriez V J, Burgeon E, Detheux M. (2002)], CHO-K1 cells engineered to stably co-express both recombinant human 5-HT2A and mitochondrial apoaequorin are used. […] For agonist testing, 50 microliters of cell suspension is mixed with 50 microliters of a solution containing test compound or reference agonist in a 96-well standard geometry microtiter plate. The resulting emission of light was recorded using a Hamamatsu Functional Drug Screening System 6000 (FDSS 6000) luminometer. For antagonist testing, 100 microliters of the solution of reference agonist (to yield an agonist concentration, EC80, sufficient to cause the cells to generate an 80% maximal luminescence response in the absence of any antagonist) is injected into the mix of cells and test compound, 15 minutes after the first injection. The resulting emission of light is recorded using Hamamatsu FDSS 6000 luminometer. IC50 values are calculated (from compound concentration dependent inhibition of agonist-induced 5-HT2A-dependent light emission) by non-linear least squares regression of the data (percent inhibition) onto equation (1) above.
In method B [Jerman J C, Brough S J, Gager T, Wood M, Coldwell M C, Smart D, Middlemiss D N. (2001)], CHO-K1 cells which had been engineered to stably co-express recombinant human 5-HT2A are used in assay done similarly to method A. In method B, the cells are loaded with a fluorogenic Ca^2+ indicator dye by pre-incubation. Addition of the reference agonist serotonin causes a transient increase in fluorescence in a suspension of the loaded cells, which can be detected using the Molecular Devices fluorometric imaging plate reader (FLIPR), a high-throughput platform for 96-well cell-based assays. Addition of test compounds that are 5-HT2A antagonists, prior to the addition of the agonist (to yield an agonist concentration, EC80, sufficient to cause the cells to generate an 80% maximal fluorescence response in the absence of any antagonist), reduces the amount of fluorescence detected by the FLIPR upon agonist addition. IC50 values are calculated (from compound concentration dependent inhibition of agonist-induced 5-HT2A-dependent fluorescence) by non-linear least squares regression of the data (percent inhibition) onto equation (1) above.

The structures appear in SMILES notation.

T1 sequence (P28223 whole entry): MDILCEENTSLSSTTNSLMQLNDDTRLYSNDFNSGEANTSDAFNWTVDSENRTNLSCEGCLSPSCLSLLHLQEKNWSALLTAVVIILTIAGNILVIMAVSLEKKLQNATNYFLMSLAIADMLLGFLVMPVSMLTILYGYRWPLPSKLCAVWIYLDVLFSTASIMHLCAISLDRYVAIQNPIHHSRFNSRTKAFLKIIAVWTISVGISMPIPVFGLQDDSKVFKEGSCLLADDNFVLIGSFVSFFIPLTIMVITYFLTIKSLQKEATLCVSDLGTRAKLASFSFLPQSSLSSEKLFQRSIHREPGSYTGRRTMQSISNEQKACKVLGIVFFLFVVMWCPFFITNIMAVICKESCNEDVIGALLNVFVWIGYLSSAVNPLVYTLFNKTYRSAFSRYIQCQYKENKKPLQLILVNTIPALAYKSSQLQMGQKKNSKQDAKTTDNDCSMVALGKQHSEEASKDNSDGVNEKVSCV

Turning to `OC(CO[C@@H]1CCc2ccccc21)CN1CC[C@H](Oc2cccc(F)c2)C1` (stereo partly drawn) [Example 37, 1-(((R)-2,3-dihydro-1H-inden-1-yl)oxy)-3-((S)-3-(3-fluorophenoxy)pyrrolidin-1-yl)propan-2-ol], the IC50 stood at 9.01 µM.

For the molecule `COc1cccc(O[C@@H]2CCN(CC(O)CO[C@H]3CCc4ccccc43)C2)c1` (stereo partly drawn) [Example 38, 1-(((S)-2,3-dihydro-1H-inden-1-yl)oxy)-3-((R)-3-(3-methoxyphenoxy)pyrrolidin-1-yl)propan-2-ol], the IC50 was found to be 3.17 µM.

In the case of `COc1cccc(O[C@H]2CCN(CC(O)CO[C@H]3CCc4ccccc43)C2)c1` (stereo partly drawn) [Example 39, 1-(((S)-2,3-dihydro-1H-inden-1-yl)oxy)-3-((S)-3-(3-methoxyphenoxy)pyrrolidin-1-yl)propan-2-ol], the IC50 is 4.3 µM.

Turning to `COc1cccc(O[C@@H]2CCN(CC(O)CO[C@@H]3CCc4ccccc43)C2)c1` (stereo partly drawn) [Example 40, 1-(((R)-2,3-dihydro-1H-inden-1-yl)oxy)-3-((R)-3-(3-methoxyphenoxy)pyrrolidin-1-yl)propan-2-ol], the IC50 was determined as 1.6 µM.

For `COc1cccc(O[C@H]2CCN(CC(O)CO[C@@H]3CCc4ccccc43)C2)c1` (stereo partly drawn) [Example 41, 1-(((R)-2,3-dihydro-1H-inden-1-yl)oxy)-3-((S)-3-(3-methoxyphenoxy)pyrrolidin-1-yl)propan-2-ol], the IC50 came out at 7.13 µM.

As for `OC(CO[C@H]1CCc2ccccc21)CN1CC[C@H](Oc2ccc(F)cc2)C1` (stereo partly drawn) [Example 43, 1-(((S)-2,3-dihydro-1H-inden-1-yl)oxy)-3-((S)-3-(4-fluorophenoxy)pyrrolidin-1-yl)propan-2-ol], the IC50 amounted to 2.08 µM.

`OC(CO[C@H]1CCCc2ccccc21)CN1CC[C@@H](Oc2ccc(F)cc2)C1` (stereo partly drawn) [Example 48, 1-((R)-3-(4-fluorophenoxy)pyrrolidin-1-yl)-3-(((S)-1,2,3,4-tetrahydronaphthalen-1-yl)oxy)propan-2-ol]: the IC50 came out at 2.22 µM.

`OC(CO[C@H]1CCCc2ccccc21)CN1CC[C@H](Oc2ccc(F)cc2)C1` (stereo partly drawn) [Example 49, 1-((S)-3-(4-fluorophenoxy)pyrrolidin-1-yl)-3-(((S)-1,2,3,4-tetrahydronaphthalen-1-yl)oxy)propan-2-ol]: the IC50 turned out to be 2.55 µM.

As for `OC(CO[C@@H]1CCCc2ccccc21)CN1CC[C@H](Oc2ccc(F)cc2)C1` (stereo partly drawn) [Example 51, 1-((S)-3-(4-fluorophenoxy)pyrrolidin-1-yl)-3-(((R)-1,2,3,4-tetrahydronaphthalen-1-yl)oxy)propan-2-ol], the IC50 worked out at 0.49 µM.

Turning to `Cc1cccc(N2CCN(CC3(O)CCOc4ccccc43)CC2)c1C` (stereo not drawn) [Example 58, 4-((4-(2,3-dimethylphenyl)piperazin-1-yl)methyl)chroman-4-ol], the IC50 was 0.49 µM.

With `Cc1cccc(N2CCN(CC3CCOc4ccccc43)CC2)c1C` (stereo not drawn) [Example 59, 1-(chroman-4-ylmethyl)-4-(2,3-dimethylphenyl)piperazine], the IC50 turned out to be 0.8 µM.

Take `CC1(OCC(O)CN2CCN(c3ccccc3)CC2)COc2ccccc21` (stereo not drawn) [Example 79, 1-((3-methyl-2,3-dihydrobenzofuran-3-yl)oxy)-3-(4-phenylpiperazin-1-yl)propan-2-ol]: the IC50 came to 0.36 µM.

`O[C@@H](CO[C@@H]1CCCc2ccccc21)CN1CCN(Cc2ccccc2)CC1` [Example 84, (R)-1-(4-benzylpiperazin-1-yl)-3-(((R)-1,2,3,4-tetrahydronaphthalen-1-yl)oxy)propan-2-ol]: the IC50 is > 16.7 µM.

As for `O[C@H](CO[C@@H]1CCCc2ccccc21)CN1CCN(Cc2ccccc2)CC1` [Example 86, (S)-1-(4-benzylpiperazin-1-yl)-3-(((R)-1,2,3,4-tetrahydronaphthalen-1-yl)oxy)propan-2-ol], the IC50 is > 16.7 µM.

For the molecule `COc1ccccc1OC1CCN(CC2(C)CCc3ccccc32)CC1` (stereo not drawn) [Example 96, 4-(2-methoxyphenoxy)-1-((1-methyl-2,3-dihydro-1H-inden-1-yl)methyl)piperidine], the IC50 was > 10 µM.

For the origin of these results see patent US11186564B2, “Dual NAV1.2/5HT2a inhibitors for treating CNS disorders” (Sunovion Pharmaceuticals Inc., priority 2016, dated 2021).
